Measured values reported in patent US20260137697A1, “THIAZOLO[5,4-D]PYRIMIDINE COMPOUNDS, COMPOSITIONS COMPRISING THEM AND USES THEREOF” (University de Montreal, priority 2022, published 2026).

These compounds were tested against T1, ARAF (Homo sapiens, UniProt P10398) (assay: ARAF kinase activity assay (AlphaLISA p-MEK 1/2)). Conditions: Table A; 10 μM ATP, kinase-dead MEK1 substrate.
T1 construct: ARAF kinase reactions were rigorously the same with the exception that kinase concentration was raised to 3.75 nM (cat. No. 1768-0000-1; Reaction Biology)
T1 sequence (P10398 303-606 limits assumed): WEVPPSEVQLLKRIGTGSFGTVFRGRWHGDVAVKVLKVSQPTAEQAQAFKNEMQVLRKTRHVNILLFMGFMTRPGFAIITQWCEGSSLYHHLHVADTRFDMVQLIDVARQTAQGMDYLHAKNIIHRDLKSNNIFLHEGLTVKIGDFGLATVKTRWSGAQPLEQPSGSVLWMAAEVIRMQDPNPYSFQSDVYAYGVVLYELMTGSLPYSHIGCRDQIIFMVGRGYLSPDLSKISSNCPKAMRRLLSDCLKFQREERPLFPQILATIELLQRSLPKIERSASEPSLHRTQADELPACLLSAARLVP
Type: biochemical
Method: Compound preparation: solid samples of each substance in 1dram vials were suspended in DMSO (Fisher Scientific) at a stock concentration of 20 mM. Stocks were kept at −20° C. and protected from light. If solubility of the compound at 20 mM appeared to be an issue, the initial concentration of the DMSO stock was changed to 10 mM or 5 mM.
In vitro enzymatic reactions were used for evaluating compounds intrinsic activity against BRAF, CRAF and ARAF. For BRAF and CRAF, 0.375 nM of purified GST-tagged kinases (cat. No. B4062-10UG and cat. No. R1656-10UG respectively from Millipore Sigma) were incubated with 75 nM of kinase-dead MEK1 substrate (cat. No. 40075; BPS Bioscience) in the presence of 10 μM of Ultrapure ATP (cat. No. V9102; Promega; part V915A) with and without the test compound in a buffer containing 50 mM HEPES pH 7.5, 10 mM MgCl2, 1 mM EDTA, 0.01% Brij-35 and 2 mM DTT. Separate reactions were performed with the MEK1 substrate and ATP as a blank control. ARAF kinase reactions were rigorously the same with the exception that kinase concentration was raised to 3.75 nM (cat. No. 1768-0000-1; Reaction Biology).
For compound treatment, 5 μL/well of test substance solution are placed in a 384-well proxyplate (Perkin Elmer) and mixed with 2× concentrated kinase reactions. The dilution series is selected so that nine concentrations cover a range from 100 nM to 0.01 nM. […] The final concentration of DMSO in the assay is set at 0.05%.
ARAF kinase reactions were carried out for a total of 2 hours at 30° C. and then stopped by addition of EDTA at a final concentration of 40 mM. Reactions were then detected using the AlphaLISA® SureFire® Ultra™ p-MEK 1/2 (Ser218/222) (PerkinElmer) kit. Reactions were performed with 5 μL of kinase reaction according to the manufacturer's specifications in 384-well proxyplates (Perkin Elmer) followed by overnight incubation of the AlphaLISA® reactions at room temperature in a humidified chamber. After completion of the detection reactions, the signals were recorded on a Synergy Neo2 plate reader (Biotek) equipped with AlphaLISA® filters. The effect of each compound dilution on the pMEK signal generated by ARAF reactions was expressed in % inhibition and calculated as follows. An internal 100% inhibition control (average of luminescence in kinase reactions comprising kinase dead MEK1 substrate alone) was included in each plate to measure of pMEK background and was subtracted from each data point. The average of DMSO (vehicle) controls (set as 0% inhibition) was also established and used to calculate % inhibition:
IC50 values were obtained by plotting the kinase inhibition values and fitting the dose-activity curves using a log(agonist) versus response—variable slope (four parameters) function using either GraphPadPrism (V7.0) or Dotmatics Screening Ultra platform. Standards included in the ARAF kinase assay were Belvarafenib (MedChem Express cat. No. HY-109080; CAS No. 1446113-23-0), LXH254 (MedChem Express cat. No. HY-112089; CAS No. 1800398-38-2) and BGB283 (cat. No. HY-18957; CAS No. 1446090-79-4).
With `Cc1ccc2c(Nc3cccc(Cl)c3F)nccc2c1NC(=O)c1csc2c(N)ncnc12` [Belvarafenib, reference compound] the IC50 was greater than 10 nM.
Work on `Cc1c(F)cccc1S(=O)(=O)Nc1ccc(F)c(Nc2ncnc3sc(-n4cc(C(=O)N5C6CCC5CN(C)C6)c5ccccc54)nc23)c1F` [Example 44] yielded an IC50 of 1 to 10 nM.
With `N#CC1(c2cccc3c2ncn3-c2nc3c(Nc4c(F)ccc(NS(=O)(=O)c5cccc(Cl)c5Cl)c4F)ncnc3s2)CC1` [Example 122] the IC50 was 1 to 10 nM.
